Reference: article PMC12535076, “Neurotherapeutic effects of Vutiglabridin as a Paraoxonase-2 modulator in preclinical models of Parkinson’s disease” (Molecular Neurodegeneration, 2025)
Where two headings read alike, the source gives them in different places.

Key:
[1] = Quantification of drug concentration in plasma and brain of mice (LC-MS/MS); type: in vivo, C57BL/6J mice; conditions: mouse
Experimental: Male C57BL/6J mice (8 weeks old, n = 24, non-fasted; Charles River Japan (CRJ), OrientBio, Seongnam, Korea) were dosed with 50 mg/kg of Vuti once and sacrificed at 0, 1, 2, 4, 6, 8, 10, 24 h time point (n = 3 per time point). Their whole blood was collected via the vena cava in a heparin-coated syringe and their whole brain was collected after perfusion with 0.9% saline. Vuti was quantified in both plasma and brain samples using LC-MS/MS analysis. This study was performed in accordance with the Association for Assessment and Accreditation of Laboratory Animal Care International (AAALAC; Approval No. LCDI-2021-0027).
LC-MS/MS analysis to quantify Vuti used previously set conditions. Briefly, HPLC-ESI-MS/MS analyses were performed using a 1200 series HPLC system (Agilent Technologies, Wilmington, DE) coupled to 6490 Accurate-Mass Triple Quadrupole Mass Spectrometer (Agilent Technologies, Wilmington, DE). Mass detection was performed in the positive ion mode, and the column temperature was maintained at 40 °C using a thermostatically controlled column oven. The column used for the separation was Hypersil GOLD C18 column (2.1 × 100 mm ID; 1.9 μm, Thermo Science). The mobile phases consisted of 0.1% acetic acid in distilled water (solvent A) and 0.1% acetic acid in ACN: MeOH = 3:1 (v/v) (solvent B). The LC gradient was as follows: 0–3 min, B 20%; 3–5 min, B 20 − 80%; 5–8 min, B 80%; 8–10 min, B 80 − 20%; and 10–15 min, B 20%. The flow rate was 250 µL/ min, and the total run time was 15 min. For multiple reaction monitoring (MRM) analyses, the target transition used was 355.1/151.0 m/z for Vuti. The collision energy was 17 V and nitrogen was used as the desolvation gas at a flow rate of 11 L/min and at 300 °C. Skyline software (MacCoss Laboratory, University of Washington, Seattle, WA) was used to process the LC-MS/MS data.

[2] = test system: MPTP-injected C57BL/6 mice; assay: MPTP-injected sub-acute PD mouse model (pole test, rotarod, TH immunohistochemistry); type: in vivo; conditions: MPTP mice
Experimental: Animals were allowed at least 1 week of acclimatization before being subjected to the study and were housed in a regulated environment with a 12-h/12-h light/dark cycle. Food and water were provided ad libitum. The animal experiment was carried out in accordance with the National Institutes of Health Guide for the Care and Use of Laboratory Animals (NIH Publications No. 80–23; revised 1996). All procedures for handling mice were carried out in accordance with “Principles of Laboratory Animal Care” and the Animal Care and Use guidelines of Kyung Hee University, Seoul, Korea (KHSASP-20-163).
MPTP was dissolved in distilled water and injected intraperitoneally for five days from day 10 of the 21-day experiment period. Vuti or rasagiline was administered via oral gavage for 21 days. Vehicles for both Vuti and MPTP (distilled water) were administered to all mice. Mice were randomly divided for all studies. For the first set of studies shown in Fig. 3, each group consisted of 5 animals.
To determine forelimb and hindlimb motor coordination and balance, we performed the rotarod test as described previously. Also, the pole test was performed to measure bradykinesia. For the rotarod test, the animals were pre-trained on the rotating bar of a rotarod unit set (LE 8500, Letica, Spain) on days 18 and 19 before the test on day 20. During pre-training, three trials per day were performed (5 rpm rotation speed on the first day, 15 rpm rotation speed on the second day). Mice were kept on the rotating bar (7.3-cm diameter) for 5 min on each trial. On day 20, the time spent on the rotating bar at 20 rpm, which was defined as the latent period, was recorded. Performance was recorded as 300 s if the latent period exceeded 300 s. Mice had at least 5 min of rest between trials to reduce stress and fatigue. Each animal underwent three test trials, and the mean of the test results was subjected to statistical analysis. For the pole test, mice were held on the top of the pole (diameter 8 mm, height 55 cm, with a rough surface). The time to land down and place four fee on the floor was recorded as the time for locomotion activity (T-LA).
On day 21, mice were anesthetized with sodium pentobarbital (50 mg/kg intraperitoneally) and transcardially perfused with saline containing 0.5% sodium nitrate and heparin (10 U/mL) and then fixed with 4% PFA in 0.1 M phosphate-buffer (PB, pH 7.2). Dissected brains were post-fixed overnight in buffered 4% PFA at 4 °C and stored in a 30% sucrose solution until they sank. Brains were cryosectioned into 30 μm thick coronal sections in a Cryostat (Microsystems AG, Leica, Wetzlar, Germany) and stored until use at 4℃ in a cryoprotectant (25% ethylene glycol, 25% glycerol, 0.2 M PB, and water). All sections were collected in six separate series and processed for immunostaining.
Free-floating brain sections were processed with the avidin-biotin peroxidase complex (ABC) complex (Vector Laboratories, Burlingame, CA, USA) method. Briefly, brain sections were incubated with primary rabbit anti-TH antibodies (1:1000; Pel-Freez Biologicals, Rogers, AR, USA) overnight at 4 °C, with biotinylated anti-rabbit IgG (1:400) for 1 h at room temperature, and then with the ABC solution (1:1:200) for 1 h at room temperature. The immunoperoxidase signals of TH was detected by incubating sections with 0.5 mg/ml 3,3′-diaminobenzidine (Sigma, St. Louis, MO, USA) in 0.1 M PB containing 0.003% H2O2. Stained brain sections were mounted on gelatin-coated slides and imaged under a bright-field microscope (Olympus Optical, Tokyo, Japan). TH-positivity in the ST was measured by the optical density of TH-positive fibers at x40 magnification using ImageJ software (National Institutes of Health, Bethesda, MD, USA). TH-positive cells in the SNpc in brain tissue Sect. (5 sections/series) were counted at x100 magnification as previously described. […]

Sprague-Dawley rats = assay: Functional observational battery (FOB) evaluation; type: in vivo, rat; conditions: male SD rats, single oral 500, 1000, 2000 mg/kg; 0.5, 1, 3, 6, 24 h
Experimental: To further investigate the potential neurotoxicity of Vuti in vivo, a standard functional observational battery (FOB) evaluation was performed. Male Sprague-Dawley rats were administered single high doses of Vuti – 500, 1000, and 2000 mg/kg. Subsequently, two observers blindly scored the behavior of animals in the home cage, open field, hand-held, and sensory-motor function at time points of 0.5, 1, 3, 6, and 24 h.
Male 6-week-old Sprague-Dawley Rat was orally administered with 0, 500, 1000, or 2000 mg/kg of Vuti (n = 8 per group). Two observers performed blind observations following the standard guideline (3) at 0.5, 1-, 3-, 6-, and 24-hours post-dose on the basis of the pharmacokinetics parameters. […] NC = No change, NSC = No statistically significant change.

[3] = Vuti 1, 50, 100 mg/kg/day or rasagiline 0.1 mg/kg/day orally for 21 days

CCOc1ccc(C2COc3c(ccc4c3CCC(C)(C)O4)C2)c(O)c1 (stereo not drawn) [Vuti, Vutiglabridin]
Kp at 6 h ([1]; male, C57BL/6J, brain / plasma, oral, single 50 mg/kg, at Tmax of 6 h, read-out: brain concentration relative to plasma): 2.7
Kp ([1]; male, C57BL/6J, brain / plasma, single oral 50 mg/kg, read-out: brain relative to plasma by AUC24h): 2.6
concentration at 6 h ([1]; male, C57BL/6J, brain, single oral 50 mg/kg, at Tmax of 6 h, read-out: concentration in brain): 4030 ng/g
Tmax ([1]; male, C57BL/6J, plasma, single oral 50 mg/kg): 6 h
concentration at 6 h ([1]; male, C57BL/6J, plasma, single oral 50 mg/kg, at Tmax of 6 h, read-out: concentration in plasma): 1490 ng/mL
AUC(0-t) ([1]; male, C57BL/6J, plasma, single oral 50 mg/kg, read-out: AUC24h in plasma): 16100 ng·h/mL
AUC24h in brain ([1]; single oral 50 mg/kg): 42.5 µg·h/g
effect on T-LA in the pole test [2, 3]: significantly normalized
effect on latency to fall in the rotarod test [2, 3]: significantly normalized
number of TH-positive cells in the SNpc and fiber density in the ST ([2]; Vuti 1, 50, 100 mg/kg/day oral, p < 0.001 vs. control, levels comparable to rasagiline): dose-dependently increased
maximum efficacy dose ([2]; no difference in neuroprotection between 50 and 100 mg/kg): 50 mg/kg
behaviors in FOB (home cage, open field, hand-held, sensory-motor function) (Sprague-Dawley rats): did not induce statistically significant changes
